Test results from paper PMC9598282 (Antibiotics, 2022).
Values joined by “and” are separate entries in the source; they are usually repeats but may differ in a detail not shown here. Identical values can stand only once. Like-named read-outs stand apart in the source and are kept apart here.

Experiments:
P. aeruginosa 114228 = assay: microbe, parasite or virus in culture; format: cell-based, Pseudomonas aeruginosa; settings: one value per checkerboard plate
Procedure, shortened: (§1)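 Two-fold serial dilutions of antibiotic and guanidinylated polymyxin adjuvant crossed in checkerboard against bacterial inoculum prepared as for susceptibility testing; 18 h at 37 °C, growth read as OD590. FIC index = sum of each agent's MIC in combination divided by its MIC alone; ≤0.5 synergy, >0.5–4 additivity, >4 antagonism.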

P. aeruginosa PAO1 = assay: microbe, parasite or virus in culture; format: cell-based, Pseudomonas aeruginosa
Procedure, shortened: as §1

P. aeruginosa PA 107092 [1] = assay: Time-kill assay; format: cell-based, Pseudomonas aeruginosa; settings: monotherapy, 8 μg/mL
Protocol: To study the time-dependent killing effects of the drug combinations, the time-kill kinetics were assessed. The time-kill assay was performed following the 8 μM (2 μg/mL) concentration of avibactam used in the checkerboard assay. […] This concentration also corresponds to the susceptibility breakpoint of both β-lactams.
For the preparation of the bacterial solution, an overnight grown culture was diluted in 0.85% saline solution and adjusted to 0.5 McFarland turbidity. […] The culture tubes were incubated at 37 °C, shaking at 250 rpm. At the appointed time intervals, a 100-μL aliquot was taken from each tube, serially diluted in phosphate-buffered saline (PBS) and plated on LB agar plates. The plates were incubated at 37 °C, and bacterial colonies were counted after 18 h. The bactericidal or bacteriostatic activity is determined based on the decrease in CFU over the time period. Bactericidal activity corresponds to ≥3 log10 reduction in CFU/mL, while bacteriostatic activity corresponds to <3 log10 reduction in CFU/mL.

E. coli ATCC 25922 = assay: microbe, parasite or virus in culture; format: cell-based, Escherichia coli
Procedure, shortened: as §1

P. aeruginosa P259-96918 = assay: Checkerboard assay; format: cell-based, Pseudomonas aeruginosa; settings: Pseudomonas aeruginosa, P25996918; agent alone, one value per checkerboard plate
Protocol: (§2) The adjuvant properties of the guanidinylated polymyxins were evaluated using the checkerboard assay as previously described. The bacterial solution was prepared as described in the antimicrobial susceptibility assay. The antibiotic of interest and the adjuvant were serially diluted two-fold along the x- and y-axis on a 96-well plate, respectively, resulting in varying concentrations of both agents in each well. Equal volumes of bacterial solution were added to the designated wells. The well consisting of bacterial solution served as the positive control, while the wells containing only media served as the negative control. The plate was then incubated at 37 °C for 18 h. After incubation, an Emax Plus microplate reader (Molecular Devices, Union City, CA, USA) was used to measure the OD at a wavelength of 590 nm to confirm the turbidity. The fractional inhibitory concentration (FIC) index was then determined to establish the relationship between the antibiotic and adjuvant. The FIC index corresponds to the sum of the FICs of the antibiotic and adjuvant. The FIC of each agent is calculated by dividing its MIC when it is used in combination by its MIC when used alone. FIC indices ≤0.5, 0.5 < x ≤ 4 and >4 indicate synergy, additivity and antagonism, respectively.

[2] = test system: P. aeruginosa P262-101856; assay: Checkerboard assay; format: cell-based, Pseudomonas aeruginosa; settings: one value per checkerboard plate
Protocol: as §2

P. aeruginosa 101243 = assay: Checkerboard assay; format: cell-based, Pseudomonas aeruginosa; settings: one value per checkerboard plate
Protocol: as §2

[3] = test system: P. aeruginosa P264-104354; assay: Checkerboard assay; format: cell-based, Pseudomonas aeruginosa; settings: Pseudomonas aeruginosa, P264104354, agent alone, one value per checkerboard plate
Protocol: as §2

P. aeruginosa PA 109084 = format: cell-based, Pseudomonas aeruginosa
Protocol: as §2

P. aeruginosa PA 88949 = format: cell-based, Pseudomonas aeruginosa; settings: one value per checkerboard plate
Protocol: as §2

P. aeruginosa PA 86052 = format: cell-based, Pseudomonas aeruginosa; settings: one value per checkerboard plate
Protocol: as §2

P. aeruginosa PA 107092 [4] = format: cell-based, Pseudomonas aeruginosa
Protocol: as §2

A. baumannii AB031 = assay: Checkerboard assay; format: cell-based, Acinetobacter baumannii; settings: Acinetobacter baumannii, AB031, agent alone, one value per checkerboard plate
Protocol: as §2

A. baumannii ATCC 17978 = assay: microbe, parasite or virus in culture; format: cell-based, Acinetobacter baumannii
Procedure, shortened: as §1

A. baumannii 92247 = assay: microbe, parasite or virus in culture; format: cell-based, Acinetobacter baumannii; settings: one value per checkerboard plate
Procedure, shortened: as §1

A. baumannii AB027 = assay: microbe, parasite or virus in culture; format: cell-based, Acinetobacter baumannii; settings: Acinetobacter baumannii, AB027, agent alone, one value per checkerboard plate
Procedure, shortened: as §1

A. baumannii 110193 = assay: microbe, parasite or virus in culture; format: cell-based, Acinetobacter baumannii; settings: Acinetobacter baumannii, 110193, agent alone, one value per checkerboard plate
Procedure, shortened: as §1

E. coli 107115 = assay: microbe, parasite or virus in culture; format: cell-based, Escherichia coli; settings: Escherichia coli, 107115, agent alone, one value per checkerboard plate
Protocol: as §2

[5] = one value per checkerboard plate

CC(C)(O/N=C(\C(=O)N[C@@H]1C(=O)N2C(C(=O)[O-])=C(C[n+]3ccccc3)CS[C@H]12)c1csc(N)n1)C(=O)O [Ceftazidime]
MIC (P. aeruginosa 114228; Pseudomonas aeruginosa, 114228, agent alone): 4 µg/mL | MIC alone (P. aeruginosa 114228; agent alone): 8 µg/mL | Absolute MIC of antibiotic at 4 μg/mL GCol (P. aeruginosa PAO1): 0.25 µg/mL | MIC (P. aeruginosa PAO1; Pseudomonas aeruginosa, PAO1, 18 h, agent alone, one value per checkerboard plate, read-out: MIC alone): 2 µg/mL | log10 increase (bacterial growth) over 24 h (P. aeruginosa PA 107092 [1]): ~ 2 log10 | Absolute MIC of antibiotic at 2 μg/mL GCol (E. coli ATCC 25922): 0.063 µg/mL | Absolute MIC of antibiotic at 2 μg/mL GPMB (E. coli ATCC 25922): 0.063 µg/mL | MIC (E. coli ATCC 25922; Escherichia coli, ATCC25922, 18 h, agent alone, one value per checkerboard plate, read-out: MIC alone): 0.25 µg/mL | MIC (P. aeruginosa P259-96918): 512 µg/mL | MIC ([2]; Pseudomonas aeruginosa, P262101856, agent alone): 8 µg/mL | MIC alone ([2]; agent alone): 16 µg/mL | MIC (P. aeruginosa 101243; Pseudomonas aeruginosa, 101243, agent alone): 64 µg/mL | MIC alone (P. aeruginosa 101243; agent alone): 32 µg/mL | MIC [3]: 64 µg/mL | MIC antibiotic alone (P. aeruginosa PA 109084; [5]): 64 µg/mL and 128 µg/mL | MIC antibiotic alone (P. aeruginosa PA 109084; plates with 8 μM avibactam): 16 µg/mL | MIC antibiotic alone (P. aeruginosa PA 88949): 32 µg/mL | MIC antibiotic alone (P. aeruginosa PA 86052): 64 µg/mL | MIC antibiotic alone (P. aeruginosa PA 107092 [4]; [5]): 64 µg/mL | MIC antibiotic alone (P. aeruginosa PA 107092 [4]; plates with 8 μM avibactam): 16 µg/mL and 8 µg/mL | MIC (A. baumannii AB031): 32 µg/mL | Absolute MIC of antibiotic at 2 μg/mL GCol (A. baumannii ATCC 17978): 4 µg/mL | Absolute MIC of antibiotic at 2 μg/mL GPMB (A. baumannii ATCC 17978): 4 µg/mL | MIC (A. baumannii ATCC 17978; Acinetobacter baumannii, ATCC17978, 18 h, agent alone, one value per checkerboard plate, read-out: MIC alone): 16 µg/mL | MIC (A. baumannii 92247; Acinetobacter baumannii, 92247, agent alone): 16 µg/mL | MIC alone (A. baumannii 92247; agent alone): 32 µg/mL | MIC (A. baumannii AB027): 2050 µg/mL | MIC (A. baumannii 110193): 64 µg/mL | MIC (E. coli 107115): 512 µg/mL
